Laboratory results from patent US20250221988A1 (Cullgen (Shanghai), Inc., priority 2022, published 2025).
Read-outs that look alike come from different tables or passages of the source.

What was measured:
MV4;11 cells = assay: Cell viability assay (CellTiter-Glo) in MV4;11 cells; assay type: cell-based; settings: MV4;11 cells, three days, read-out: MV4
In short: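 After three days' exposure to 3-fold serial compound dilutions (8 or 12 points), viability of cells seeded at 5000/well is read by CellTiter-Glo. Runs were done alone or combined with gilteritinib at 10 nM (MV4;11) or 20 nM (MOLM-13); IC50 from nonlinear regression.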

MOLM-13 cells = assay: Cell viability assay (CellTiter-Glo) in MOLM-13 cells; assay type: cell-based; settings: MOLM-13 cells, three days
[1] = Homo sapiens, MV4-11, 72 h, compound alone, 11 IC50
[2] = Homo sapiens, 72 h, compound alone, read-out: MOLM-13 IC50
[3] = with 10 nM gilteritinib, 11 IC50 (nM) + 10 nM Gil
[4] = with gilteritinib, read-out: MOLM-13 IC50 (nM) + 10 nM Gil

| Compound | IC50 (MV4;11 cells; [1]) | IC50 (MOLM-13 cells; [2]) | IC50 (MV4;11 cells; [3]) | IC50 (MOLM-13 cells; [4]) |
| --- | --- | --- | --- | --- |
| Cc1nc(-c2cn(C[C@H]3C[C@H](Nc4ccc5c(c4)C(=O)N(C4CCC(=O)NC4=O)C5=O)C3)nc2C2CC2)ccc1F (stereo partly drawn) [GS-711, 5-((Trans-3-((3-cyclopropyl-4-(5-fluoro-6-methylpyridin-2-yl)-1H-pyrazol-1-yl)methyl)cyclobutyl)amino)-2-(2,6-dioxopiperidin-3-yl)isoindoline-1,3-dione] | > 1000 nM | > 1000 nM |  |  |
| O=C1CCC(N2C(=O)c3ccc(NC[C@H]4C[C@H](n5cc(-c6cnc7cc(N8CC(O)C8)ccc7n6)c(C6CC6)n5)C4)cc3C2=O)C(=O)N1 (stereo partly drawn) [GS-712, 5-(((Trans-3-(3-cyclopropyl-4-(6-(3-hydroxyazetidin-1-yl)quinoxalin-2-yl)-1H-pyrazol-1-yl)cyclobutyl)methyl)amino)-2-(2,6-dioxopiperidin-3-yl)isoindoline-1,3-dione] | < 10 nM | < 10 nM | < 10 nM | < 10 nM |
| Cc1cccc(-c2nn([C@H]3C[C@H](CNc4ccc5c(c4)C(=O)N(C4CCC(=O)NC4=O)C5=O)C3)cc2C2CC2)n1 (stereo partly drawn) [GS-713, 5-(((Trans-3-(4-cyclopropyl-3-(6-methylpyridin-2-yl)-1H-pyrazol-1-yl)cyclobutyl)methyl)amino)-2-(2,6-dioxopiperidin-3-yl)isoindoline-1,3-dione] | 10 to 100 nM | 100 to 1000 nM | 10 to 100 nM | 10 to 100 nM |
| O=C1CCC(N2C(=O)c3ccc(NC[C@H]4C[C@H](n5cc(-c6ccc7cn[nH]c7n6)c(C6CC6)n5)C4)cc3C2=O)C(=O)N1 (stereo partly drawn) [GS-714, 5-(((Trans-3-(3-cyclopropyl-4-(1H-pyrazolo[3,4-b]pyridin-6-yl)-1H-pyrazol-1-yl)cyclobutyl)methyl)amino)-2-(2,6-dioxopiperidin-3-yl)isoindoline-1,3-dione] | 10 to 100 nM | 100 to 1000 nM | 10 to 100 nM | 10 to 100 nM |
| Cc1nc(-c2cn([C@H]3C[C@H](COc4ccc5c(c4)C(=O)N(C4CCC(=O)NC4=O)C5=O)C3)nc2C2CC2)ccc1F (stereo partly drawn) [GS-715, 5-((Trans-3-(3-cyclopropyl-4-(5-fluoro-6-methylpyridin-2-yl)-1H-pyrazol-1-yl)cyclobutyl)methoxy)-2-(2,6-dioxopiperidin-3-yl)isoindoline-1,3-dione] | > 1000 nM | > 1000 nM | 100 to 1000 nM |  |
| Cc1nc(-c2cn([C@H]3C[C@H](CNc4cc5c(cc4F)C(=O)N(C4CCC(=O)NC4=O)C5=O)C3)nc2C2CC2)ccc1F (some centres unmarked) [GS-716] | > 1000 nM | > 1000 nM |  |  |
| Cc1cc(F)cnc1-c1cn([C@H]2C[C@H](CNc3ccc4c(c3)C(=O)N(C3CCC(=O)NC3=O)C4=O)C2)nc1C1CC1 (stereo partly drawn) [GS-717, 5-(((Trans-3-(3-cyclopropyl-4-(5-fluoro-3-methylpyridin-2-yl)-1H-pyrazol-1-yl)cyclobutyl)methyl)amino)-2-(2,6-dioxopiperidin-3-yl)isoindoline-1,3-dione] | < 10 nM | 10 to 100 nM | < 10 nM | < 10 nM |
| O=C1CCC(N2C(=O)c3cc(F)c(NCCC[C@H]4C[C@H](n5cc(-c6cnc7ccccc7n6)c(C6CC6)n5)C4)cc3C2=O)C(=O)N1 (stereo partly drawn) [GS-718, 5-((3-(Trans-3-(3-cyclopropyl-4-(quinoxalin-2-yl)-1H-pyrazol-1-yl)cyclobutyl)propyl)amino)-2-(2,6-dioxopiperidin-3-yl)-6-fluoroisoindoline-1,3-dione] | > 1000 nM | > 1000 nM |  |  |
| Cc1cc(F)cnc1-c1cn([C@H]2C[C@H](CNc3ccc4c(c3)C(=O)N(C3CCC(=O)NC3=O)C4=O)C2)nc1C(F)F (stereo partly drawn) [GS-719, 5-(((Trans-3-(3-(Difluoromethyl)-4-(5-fluoro-3-methylpyridin-2-yl)-1H-pyrazol-1-yl)cyclobutyl)methyl)amino)-2-(2,6-dioxopiperidin-3-yl)isoindoline-1,3-dione] | 10 to 100 nM | 10 to 100 nM | < 10 nM | < 10 nM |
